Laboratory results taken from publication PMC5933457, “Probing biological activity through structural modelling of ligand-receptor interactions of 2,4-disubstituted thiazole retinoids” (Bioorganic & Medicinal Chemistry, 2018).
Like-named read-outs stand apart in the source and are kept apart here.

What was measured:
[1] = biological target: T1, RARα ligand-binding domain (GST-RAR-α-LBD) (Homo sapiens, UniProt P10276); test: LanthaScreen TR-FRET RARα co-activator (receptor binding) assay; type: biochemical; conditions: for EC50: read-out: EC50 (95% confidence range) RARα; for binding-curve upper asymptote (coactivator recruitment), RARα: in words, Fig. 6A
T1 construct: purchased Invitrogen
T1 sequence (P10276 183-417 limits assumed): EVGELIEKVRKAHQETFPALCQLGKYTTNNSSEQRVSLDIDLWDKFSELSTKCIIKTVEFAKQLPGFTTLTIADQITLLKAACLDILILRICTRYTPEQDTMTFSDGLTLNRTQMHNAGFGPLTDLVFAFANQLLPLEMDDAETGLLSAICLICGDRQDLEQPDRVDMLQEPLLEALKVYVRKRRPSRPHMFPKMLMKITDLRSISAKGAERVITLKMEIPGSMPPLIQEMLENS
Protocol: (§1) These predictions were tested through a receptor-binding assay for each RAR isotype (Fig. 6), where the assay signal is dependent on two parameters: the binding affinity of ligand to the RAR LBD, and the affinity of the coactivator for the ligand-LBD complex. For this assay, binding curves and variation in level of the upper asymptote can reflect differences in co-activator affinity for the ligand-LBD complex; variation in affinity of ligand for LBD shifts the midpoint (EC50) of the binding curve, whereas changes in the level of the upper asymptote may result from changes in coactivator affinity for the ligand-LBD complex alone, or in combination with changes in affinity for ligand with LBD.[23]
(§2) The binding interaction of each retinoid with RARα, β and γ were determined in vitro by time-resolved fluorescence resonance energy transfer (TR-FRET) using the LanthaScreen TR-FRET RARα, RARβ, and RARγ co-activator assays according to the manufacturer’s (Invitrogen™) instructions.[23] This uses a terbium-labeled anti-GST antibody, a fluorescein-labeled co activator peptide, and RARα/β/γ ligand-binding domains (LBD) that are tagged with glutathione-S-transferase (GST) in a homogenous assay format. All experiments were performed in black, 384-well low-volume plates in the dark at RT with a 4 h incubation time. The final assay volume was 20 μL and all dilutions were carried out using TR-FRET assay buffer, with a final DMSO concentration of 1%. A mixture of either 3.5 nM GST-RAR-α-LBD or 2.5 nM GST-RAR-β-LBD or 3 nM GST-RAR-γ-LBD with 62.5 nM Tb-anti GST antibody and 30 μM fluorescein-labeled peptide and retinoid or DMSO control was added to each of the wells. Each ligand assay was performed in duplicate and measured using a PHERAstar FS Microplate Reader (BMG Labtech, Ortenberg, Germany) with instrument settings as described in the manufacturer’s instructions for LanthaScreen assays. The TR-FRET signal was expressed as the ratio of the signals at 520 nm and 490 nm. The data were fitted to a three-parameter ligand-binding curve using SigmaPlot (version 12.5, Systat Software Inc., San Jose CA) and normalized to the lower asymptote of each binding curve. […] Since the assay involves interactions between ligand and LBD, and ligand-dependent interactions between the LBD and fluorescein-labeled co activator, the binding assay data were interpreted by simulating these coupled chemical reactions using the biochemical simulator COPASI version 4.3.[23], [54]
(§3) The readout of the Lanthascreen TR-FRET binding assay is based on a Forster resonance energy transfer (FRET) signal generated from the interaction between a terbium-labelled anti-glutathione-S-transferase (GST) antibody and a fluorescein-labelled coactivator peptide. The RAR ligand-binding domain (LBD) is a GST fusion protein and interaction between the LBD and the fluorescein-labelled coactivator peptide is driven by the binding of ligand to the LBD, and detected by the FRET signal from the terbium/fluorescein interaction when the terbium-labelled anti-GST binds the LBD fusion protein. The output of the assay thus relies on two binding interactions: ligand with LBD, and ligand-bound LBD with the coactivator peptide. As both interactions may be affected by the fit of ligand to the binding pocket of the LBD, we used the biochemical pathway simulator COPASI^1 to build a simple model of how the FRET signal output in the assay will vary according to differential changes in the kinetics of the two binding interactions. Reactions were modelled deterministically using mass-action kinetics described by ordinary differential equations (ODE) within COPASI.^1 This model enables us to assess the effect of different rate constants and varying ligand concentration on the formation of the final ternary complex that is the read-out from the Lanthascreen TR-FRET assay.

[2] = biological target: T2, RARβ ligand-binding domain (GST-RAR-β-LBD) (Homo sapiens, UniProt P10826); test: LanthaScreen TR-FRET RARβ co-activator (receptor binding) assay; type: biochemical; conditions: for EC50: estimated EC50, TR-FRET co-activator assay, 4 h incubation, read-out: EC50 (95% confidence range) RARβ; for binding-curve upper asymptote (coactivator recruitment), RARβ: in words, Fig. 6B
T2 construct: purchased Invitrogen
T2 sequence (P10826 183-417 limits assumed): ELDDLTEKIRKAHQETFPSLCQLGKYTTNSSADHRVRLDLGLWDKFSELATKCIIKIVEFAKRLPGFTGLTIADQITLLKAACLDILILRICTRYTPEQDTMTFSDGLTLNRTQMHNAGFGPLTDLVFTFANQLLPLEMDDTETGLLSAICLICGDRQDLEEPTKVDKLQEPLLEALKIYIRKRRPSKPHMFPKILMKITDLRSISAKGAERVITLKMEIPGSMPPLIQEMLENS
Protocol: as §1, §2, §3

[3] = system: TERA2.cl.SP12 embryonal carcinoma stem cells; test: Flow cytometry of cell-surface differentiation markers SSEA-3, TRA-1–60, A2B5; type: cell-based, human; conditions: 10 μM retinoid, 7 days, compared to ATRA and control cultures, Fig. 7A
Text: First, we examined neuronal differentiation in pluripotent TERA2.cl.SP12 human embryonal carcinoma stem cells in response to retinoid treatment. TERA2.cl.SP12 cells have been used in previous studies, [29] to test the ability of synthetic retinoids to induce differentiation along a neuronal or an alternative epithelial pathway at long in vitro timescales of up to three weeks. […] Since the parent carboxylic acid (GZ24) had little activity, the response to GZ22 was a real effect of the ester rather than a result of hydrolysis of the parent ester to the carboxylic acid.
The expression of specific cell surface protein markers (SSEA-3, TRA-1–60, A2B5) on TERA2.cl.SP12 was analyzed using flow cytometry as described previously.[53] Briefly, TERA2.cl.SP12 cells, 2 × 10^5 per 25 cm^2 flask, were seeded 12–24 h before treatment with 10 μM retinoid for 7 days. The primary antibodies used were SSEA-3 (diluted 1:10, University of Iowa Hybridoma Bank), TRA-1–60 (diluted 1:50, Abcam) and neural cell marker A2B5 (diluted 1:40, R&D Systems). Labeled cells were analyzed in a Guave EasyCyte Plus System (Millipore) flow cytometer and thresholds determining the numbers of positively expressing cells were set against the negative control antibody, P3X.

[4] = estimated EC50, TR-FRET co-activator assay, 4 h incubation

| SMILES | EC50 [1, 4] [nM] | binding-curve upper asymptote (coactivator recruitment), RARα [1] | EC50 [2] [nM] | binding-curve upper asymptote (coactivator recruitment), RARβ [2] | proportion of cells expressing differentiation markers SSEA-3, TRA-1–60, A2B5 [3] | EC50 [1] [nM] |
| --- | --- | --- | --- | --- | --- | --- |
| CCOCCOc1nc(-c2ccc(C(=O)O)cc2)sc1C [GZ18] | 15.1 | high curve asymptotes | 56.7 | very low asymptotes | very little activity |  |
| CCOC(=O)c1ccc(-c2nc(-c3ccccc3)c(C)s2)cc1 [GZ22] | 82 | lower asymptotes | 136 | high asymptote | Intermediate responses |  |
| Cc1sc(-c2ccc(C(=O)O)cc2)nc1-c1ccc2c(c1)C(C)(C)CCC2(C)C [GZ25] |  | high curve asymptotes | 11 |  | most potent, even compared to ATRA | 8.2 |
